Experimental data taken from patent US20240140986A1, “SYNTHETIC URSOLIC ACID DERIVATIVES AND METHODS OF USE THEREOF” (REATA PHARMACEUTICALS, INC., priority 2021, published 2024).
Read-outs that look alike come from different tables or passages of the source.

What was measured:
[1] = system: IFNγ-induced NO production in RAW 264.7 cells; assay: Nitric Oxide Suppression Assay (IFNγ-induced NO, Griess nitrite readout); assay type: cell-based, mouse; settings: for IC50: Mus musculus, read-out: Avg NO IC50 (nM) (Mean ± SD); for Avg NO IC50 Relative to RTA402 (fold): Table 2, ratio to RTA402
Protocol: Tissue Culture: RAW 264.7, a mouse macrophage cell line, was obtained from American Type Culture Collection (Manassas VA) and maintained in the log phase of growth in Roswell Park Memorial Institute Medium 1640 (RPMI 1640) supplemented with 10% heat inactivated fetal bovine serum and 1% penicillin-streptomycin. Cells were cultured and maintained in a humidified incubator at 37° C. under 5% C02. Cells were sub-cultured every 2-4 days. All cell culture supplies were obtained from Life Technologies (Grand Island, NY) and VWR (Radnor, PA).
Nitric Oxide Suppression Assay. RAW 264.7 cells were plated 1 day in advance of experimental treatments at a concentration of 30,000 cells per well onto Falcon-96 well clear bottom plates (Corning, NY) in a total volume of 200 μL per well using RPMI 1640 supplemented with 0.5% fetal bovine serum and 1% penicillin-streptomycin. The next day, cells were pretreated with compounds serially diluted from 1000×stocks. All compounds were dissolved in dimethyl sulfoxide (DMSO) usually at 10 mM stock solutions. Compounds were subsequently diluted in DMSO and RPMI 1640. Each well received a final concentration of 0.1% DMSO. Cells were pretreated for 2 hours and incubation at 37° C., followed by treatment with 20 ng/mL of interferon gamma (R&D Systems, Minneapolis, MN) per well for 24 hours. The next day, a nitrite standard was serially diluted from 100 μM to 1.6 μM in RPMI 1640. Afterwards, 50 μL of cell culture supernatant was transferred from each well into a new Falcon-96 well clear bottom plate. Nitrite was measured as surrogate for nitric oxide using Promega's Griess Detection Kit #G2930 (Madison, WI) which involves the addition of 50 μL of the provided sulfanilamide solution to each well of the transferred cell culture supernatant and standards, followed by a 10-minute incubation at room temperature. Next, 50 μL of the provided N-1-napthylethylenediamine dihydrochloride (NED) solution was added to the sulfanilamide reaction and incubated for 10 minutes at room temperature in the dark. Afterwards, air bubbles were removed using ethanol vapor and absorbance was measured using a Spectramax M2e plate reader with a wavelength set to 525 nm. Viability was assessed using WST-1 cell proliferation reagent from Roche (Basel, Switzerland). After media was removed for the Nitric Oxide suppression assay, 15 μL of WST-1 reagent was added to each well of cells. Plates were briefly mixed on an orbital shaker and the cells were incubated at 37° C. for 30-90 minutes. Absorbance was measured using a Spectramax M2e plate reader with wavelengths set to 440 nm and 700 nm.
For the ability of compounds to suppress the increase in nitric oxide release caused by interferon gamma, the absolute amount of nitrite that was produced in each well was extrapolated from the nitrite standards using a linear regression fit. All values were then normalized to the DMSO-interferon gamma treated wells and plotted as percent nitric oxide. IC50 values were calculated using Excel and/or GraphPad Prism (San Diego, CA).

[2] = system: Nrf2 / ARE-dependent luciferase in AREc32 reporter cell line; assay: AREc32 luciferase reporter activation (Nrf2 induction); assay type: cell-based, human; settings: for EC (2-fold): Homo sapiens, Arec32; for Relative Avg AREc32 EC2X Relative to RTA402 (fold): ratio to RTA402
Protocol: Effect on Ludferase Reporter Activation. Nrf2 is a transcription factor that binds to the antioxidant response element (ARE) sequence in the promoter regions of its target genes. AREc32 reporter cell line (derived from human breast carcinoma MCF7 cells) was obtained was from CXR Bioscience Limited (Dundee, UK) and cultured in DMEM (low glucose) supplemented with 10% FBS, 1% penicillin/streptomycin, and 0.8 mg/ml Geneticin (G418). This cell line is stably transfected with a luciferase reporter gene under the transcriptional control of eight copies of the rat GSTA2 ARE sequence (5′-GTGACAAAGCA-3′) (Wang et al., 2006). Expression of Firefly luciferase from this reporter plasmid is controlled by binding of Nrf2 to these ARE sequences. Measurement of ARE-dependent luciferase activity allows quantitative assessment of Nrf2 induction. AREc32 cell line has previously been used in studies characterizing different Nrf2 activators (Dinkova-Kostova & Wang, 2011; Roubalová et al., 2016; Roubalová et al, 2017; Wu et al, 2012).
The effect of several compounds disclosed herein on luciferase reporter activation was assessed in the AREc32 reporter cell line (see Table 10 and Table 11). This cell line is derived from human breast carcinoma MCF-7 cells and is stably transfected with a luciferase reporter gene under the transcriptional control of eight copies of the antioxidant response element from the rat Gsta2 gene, an Nrf2 target gene (Frilling et al., 1990). AREc32 cells were plated in black 96-well plates in 200 μL media at 20,000 cells per well. Twenty-four hours after plating, cells were treated with vehicle (DMSO) or test compounds at concentrations ranging from 0.03 to 1000 nM for nineteen hours. Media was removed and 100 μL of 1:1 mixture of the One-Glo Luciferase assay reagent and culture medium was added to each well. After incubation for 5 min at room temperature, the luminescence signal was measured on a PHERAstar plate reader. The EC2X value was determined using Excel and GraphPad Prism software. The fold increase in luminescence signal for cells treated with each concentration of compound relative to cells treated with vehicle was determined and a dose-response curve was generated. The dose-response curve was fit using nonlinear regression analysis and used to extrapolate the EC2X value. The EC2X value is defined as the concentration of test compound required to increase the luminescence signal 2-fold above levels in vehicle-treated samples.

[3] = RAW264.7, Table 2, RAW 264.7 cells, 2 h pretreatment, 20 ng/mL interferon gamma 24 h
[4] = RAW264.7, Table 3, ursolic acid derivatives
[5] = Table 2, concentration increasing luminescence 2-fold above vehicle, 19 h treatment, read-out: Avg AREc32 EC2X (nM) (Mean ± SD)
[6] = Table 3, ursolic acid derivatives, read-out: Avg ARE EC-2X (nM) (Mean ± SD)

For C[C@@H]1[C@H]2[C@H]3C(=O)C=C4[C@@]5(C)C=C(C#N)C(=O)C(C)(C)[C@@H]5CC[C@@]4(C)[C@]3(C)CC[C@@]2(c2nc(C3CC3)no2)CC[C@H]1C [Compound T2], the IC50 [1, 3] was 21.3 ± 7.4 nM, the IC50 [1, 4] was 21.3 ± 7.4 nM and the “Avg NO IC50 Relative to RTA402 (fold)” value [1] was 9.86 ± 0.83 fold. For the same compound, the EC (2-fold) [2, 5] was 35 ± 2 nM, the EC (2-fold) [2, 6] was 35 ± 2 nM and the “Relative Avg AREc32 EC2X Relative to RTA402 (fold)” value ([2]; Table 2) was 3.41 ± 0.20 fold.
For COCc1noc([C@]23CC[C@@H](C)[C@H](C)[C@H]2[C@H]2C(=O)C=C4[C@@]5(C)C=C(C#N)C(=O)C(C)(C)[C@@H]5CC[C@@]4(C)[C@]2(C)CC3)n1 [Compound T3], the IC50 [1, 3] was 5.1 ± 1.02 nM, the “Avg NO IC50 Relative to RTA402 (fold)” value [1] was 2.51 ± 0.94 fold and the EC (2-fold) [2, 5] was 6.16 ± 1.02 nM. For the same compound, the “Relative Avg AREc32 EC2X Relative to RTA402 (fold)” value ([2]; Table 2) was 0.598 ± 0.137 fold.
For CCc1noc([C@]23CC[C@@H](C)[C@H](C)[C@H]2[C@H]2C(=O)C=C4[C@@]5(C)C=C(C#N)C(=O)C(C)(C)[C@@H]5CC[C@@]4(C)[C@]2(C)CC3)n1 [Compound T4], the IC50 [1, 3] was 14.8 ± 2.9 nM, the IC50 [1, 4] was 14.8 ± 2.9 nM and the “Avg NO IC50 Relative to RTA402 (fold)” value [1] was 7.06 ± 0.83 fold. For the same compound, the EC (2-fold) [2, 5] was 19.9 ± 0.2 nM, the EC (2-fold) [2, 6] was 19.9 ± 0.2 nM and the “Relative Avg AREc32 EC2X Relative to RTA402 (fold)” value ([2]; Table 2) was 1.93 ± 0.23 fold.
With C[C@@H]1[C@H]2[C@H]3C(=O)C=C4[C@@]5(C)C=C(C#N)C(=O)C(C)(C)[C@@H]5CC[C@@]4(C)[C@]3(C)CC[C@@]2(c2nc(CCO)no2)CC[C@H]1C [Compound T5] the IC50 [1, 3] was 1.81 ± 0.331 nM, the “Avg NO IC50 Relative to RTA402 (fold)” value [1] was 1.24 ± 0.13 fold and the EC (2-fold) [2, 5] was 2.4 ± 0.75 nM. The “Relative Avg AREc32 EC2X Relative to RTA402 (fold)” value ([2]; Table 2) was 0.224 ± 0.196 fold.
With COC(C)c1noc([C@]23CC[C@@H](C)[C@H](C)[C@H]2[C@H]2C(=O)C=C4[C@@]5(C)C=C(C#N)C(=O)C(C)(C)[C@@H]5CC[C@@]4(C)[C@]2(C)CC3)n1 (some centres unmarked) [Compound T6] the IC50 [1, 3] was 7.66 ± 1.52 nM, the “Avg NO IC50 Relative to RTA402 (fold)” value [1] was 3.67 ± 1.40 fold and the EC (2-fold) [2, 5] was 11.8 ± 1.9 nM. The “Relative Avg AREc32 EC2X Relative to RTA402 (fold)” value ([2]; Table 2) was 1.03 ± 0.01 fold.
COCCc1noc([C@]23CC[C@@H](C)[C@H](C)[C@H]2[C@H]2C(=O)C=C4[C@@]5(C)C=C(C#N)C(=O)C(C)(C)[C@@H]5CC[C@@]4(C)[C@]2(C)CC3)n1 [Compound T7] was tested, and the IC50 [1, 3] was 3.65 ± 1.87 nM, the “Avg NO IC50 Relative to RTA402 (fold)” value [1] was 1.62 ± 0.54 fold and the EC (2-fold) [2, 5] was 6.16 ± 0.7 nM. For the same compound, the “Relative Avg AREc32 EC2X Relative to RTA402 (fold)” value ([2]; Table 2) was 0.595 ± 0.079 fold.
For C[C@@H]1[C@H]2[C@H]3C(=O)C=C4[C@@]5(C)C=C(C#N)C(=O)C(C)(C)[C@@H]5CC[C@@]4(C)[C@]3(C)CC[C@@]2(c2nc(CN(C)C)no2)CC[C@H]1C [Compound T8], the IC50 [1, 3] was 3.33 ± 0.68 nM, the IC50 [1, 4] was 3.33 ± 0.68 nM and the “Avg NO IC50 Relative to RTA402 (fold)” value [1] was 1.59 ± 0.20 fold. For the same compound, the EC (2-fold) [2, 5] was 3.72 ± 0.97 nM, the EC (2-fold) [2, 6] was 3.72 ± 0.97 nM and the “Relative Avg AREc32 EC2X Relative to RTA402 (fold)” value ([2]; Table 2) was 0.321 ± 0.059 fold.
In the case of C[C@@H]1[C@H]2[C@H]3C(=O)C=C4[C@@]5(C)C=C(C#N)C(=O)C(C)(C)[C@@H]5CC[C@@]4(C)[C@]3(C)CC[C@@]2(c2nc(COC(C)(C)C)no2)CC[C@H]1C [Compound T9], the IC50 [1, 3] is reported as 11.3 ± 2.4 nM, the “Avg NO IC50 Relative to RTA402 (fold)” value [1] is reported as 5.37 ± 0.71 fold and the EC (2-fold) [2, 5] is reported as 19.3 ± 4.5 nM. For the same compound, the “Relative Avg AREc32 EC2X Relative to RTA402 (fold)” value ([2]; Table 2) was 1.84 ± 0.20 fold.
C[C@@H]1[C@H]2[C@H]3C(=O)C=C4[C@@]5(C)C=C(C#N)C(=O)C(C)(C)[C@@H]5CC[C@@]4(C)[C@]3(C)CC[C@@]2(c2nc(CO)no2)CC[C@H]1C [Compound T10] was tested, and the IC50 [1, 3] was 2.08 ± 0.14 nM, the IC50 [1, 4] was 2.08 ± 0.14 nM and the “Avg NO IC50 Relative to RTA402 (fold)” value [1] was 1.45 ± 0.28 fold. The EC (2-fold) [2, 5] was 2.4 ± 0.3 nM, the EC (2-fold) [2, 6] was 2.4 ± 0.3 nM and the “Relative Avg AREc32 EC2X Relative to RTA402 (fold)” value ([2]; Table 2) was 0.193 ± 0.024 fold.
